From US20090087431A1, “METHODS OF TREATING BONE DISORDERS WITH MODULATORS OF AXL” (Wyeth, priority 2007, published 2009) come the findings set out here.

For series [1], the system named is MC3T3-E1 cells. In words: Formation of mineralized nodules, Alizarin red staining. Type of series: cell-based, murine. The note with it: 20 nM siRNA, Day 17 post-transfection, vs scrambled siRNA or mock. As for the experimental part: MC3T3-E1 cells were seeded at a density of 50,000 cells/well of a 6-well plate and cultured in Alpha media supplemented with 1% glutamine and 10% FBS. The following day the cells were transfected with 20 nM (final concentration) siRNA using 0.4% (final) Oligofectamine (Invitrogen) for 4 hours. The siRNAs used in this study include the pool of Axl siRNAs and the Cbfa1/Runx2 siRNA described above. In addition two control treatments were included: a mock transfection where no siRNA was introduced and a non-specific, scrambled siRNA (as described).
Following transfection, the cells were maintained in Alpha media supplemented with 1% glutamine, 10% FBS and 10 mM β-glycerophosphate, a cofactor necessary for mineralization, with no other osteogenic agents. […]
To determine mineralization, cells were washed in PBS, fixed in cold ethanol and stained with Alizarin red using standard protocols. Semi-quantification of the extent of mineralization was conducted by de-staining the cells in 10% Cetylpyridinium chloride in 10 mM sodium phosphate for 15 minutes at room temperature. Supernatants were removed and absorbance at 570 nm measured. Concentrations were determined by obtaining absorbance measurements of a standard curve of known dilutions of Alizarin red (range from 50-400 uM). Mineralization was visually assessed by the presence of red-stained nodules.

Series [2] deals with Clone 14 cells. Kind of series: Osteocalcin mRNA after siRNA transfection, osteoblast differentiation. The format is cell-based, murine. Conditions: all tested conditions (with and without BMP2), p<0.05. How it is done: The role of Axl in osteoblast differentiation from an osteoprogenitor cell was investigated using RNA interference in the murine Clone 14 cell line. In these experiments, siRNA reagents against murine Axl were transfected into cells treated with either 0 ng/ml or 100 ng/ml BMP2. The induction of osteocalcin gene expression, an established osteoblast marker, was measured to assess osteoblast differentiation 4 days after the onset of treatment and transfection.
Clone 14 cells were seeded at 20,000 cells/well in a 96-well plate and cultured in DMEM media supplemented with 10% fetal bovine serum (FBS) and 1% L-glutamine. The following day, cells were transfected for 4 hours with siRNA at a final concentration of 20 nM using 0.5% (final) Lipofectamine2000 (Invitrogen, Carlsbad, Calif.). Cells were then cultured in DMEM supplemented with 1% FBS and 1% penicillin/streptomycin. […]
To assess the consequence of Axl knockdown on osteoblast differentiation, osteocalcin mRNA levels were monitored. […]
An additional negative control was the same non-specific, scrambled siRNA described above (NSP). Osteocalcin mRNA levels were monitored by real-time RT-PCR as above using the primers set forth in SEQ ID NO:9, SEQ ID NO:10, and SEQ ID NO:11 and shown below:
Osteocalcin mRNA levels are shown relative to those monitored in cells transfected with a scrambled, non-specific siRNA (NSP). […]

Consider “Runx2/Cbfa1: siRNA against Runx2/Cbfa1, 5′-CGUGAAUGGUCAUAAUAACU-3′; negative control (listed as RNA, chemistry not given here)”, for which the “extent of mineralization (visual, Alizarin red)” value in series [1] is listed as “dramatic reduction”. In addition, in series [2], the “osteoblast differentiation as monitored by osteocalcin mRNA expression” value is “dramatically repressed”.
